Reference: article PMC5218480 (PLoS ONE, 2017)

Test system: MV-4-11 cells
Assay: Gene expression microarray analysis (Affymetrix PrimeView) and GSEA
Type: cell-based, human
Design: RFU PODN (11730768_x_at) / Fold change /veh PODN (11730768_x_at) / RFU LINC00158 (11744669_a_at) / Fold change /veh LINC00158 (11744669_a_at) / RFU DUSP10 (11751237_a_at) / Fold change /veh DUSP10 (11751237_a_at) / RFU ID3 (11757404_x_at) / Fold change /veh ID3 (11757404_x_at) / RFU PLEKHG5 (11737974_s_at) / Fold change /veh PLEKHG5 (11737974_s_at) / RFU LRRC4B (11730491_at) / Fold change /veh LRRC4B (11730491_at) / RFU GIMAP4 (11747438_a_at) / Fold change /veh GIMAP4 (11747438_a_at) / RFU KRT8 (11758183_x_at) / Fold change /veh KRT8 (11758183_x_at) / RFU CNN1 (11734310_a_at) / Fold change /veh CNN1 (11734310_a_at) / RFU VPS37D (11726825_at) / Fold change /veh VPS37D (11726825_at) / RFU C10orf10 (11716522_x_at) / Fold change /veh C10orf10 (11716522_x_at) / RFU KIR2DL2 /// KIR2DL4 /// KIR2DL5A /// KIR2DL5B /// KIR2DS1 /// KIR2DS2 /// KIR2DS3 /// KIR2DS4 /// KIR3DL3 /// KIR3DL3 /// KIR3DS1 (11738374_at) / Fold change /veh KIR2DL2 /// KIR2DL4 /// KIR2DL5A /// KIR2DL5B /// KIR2DS1 /// KIR2DS2 /// KIR2DS3 /// KIR2DS4 /// KIR3DL3 /// KIR3DL3 /// KIR3DS1 (11738374_at) / RFU C1QL1 (11718748_at) / Fold change /veh C1QL1 (11718748_at) / RFU TMPRSS4 (11747572_a_at) / Fold change /veh TMPRSS4 (11747572_a_at) / RFU HAMP (11756126_x_at) / Fold change /veh HAMP (11756126_x_at) / RFU RNFT2 (11725882_a_at) / Fold change /veh RNFT2 (11725882_a_at) / RFU NR4A2 (11747474_a_at) / Fold change /veh NR4A2 (11747474_a_at) / RFU ABCC12 (11746883_a_at) / Fold change /veh ABCC12 (11746883_a_at) / RFU TMEM136 (11760407_x_at) / Fold change /veh TMEM136 (11760407_x_at) / RFU CLDN22 /// WWC2 (11732394_at) / Fold change /veh CLDN22 /// WWC2 (11732394_at) / RFU HLA-DPB1 (11760878_x_at) / Fold change /veh HLA-DPB1 (11760878_x_at) / RFU SPINT1 (11716480_a_at) / Fold change /veh SPINT1 (11716480_a_at) / RFU GAP43 (11754022_s_at) / Fold change /veh GAP43 (11754022_s_at) / RFU A4GNT (11735810_at) / Fold change /veh A4GNT (11735810_at) / RFU PRB3 (11715151_x_at) / Fold change /veh PRB3 (11715151_x_at) / RFU TUBB4B (11761932_at) / Fold change /veh TUBB4B (11761932_at) / RFU CAPN14 (11732068_a_at) / Fold change /veh CAPN14 (11732068_a_at) / RFU TMCC2 (11721928_a_at) / Fold change /veh TMCC2 (11721928_a_at) / RFU IRGQ (11745062_a_at) / Fold change /veh IRGQ (11745062_a_at) / RFU FAM174B (11720279_a_at) / Fold change /veh FAM174B (11720279_a_at) / RFU TMPRSS4 (11748680_a_at) / Fold change /veh TMPRSS4 (11748680_a_at) / RFU FAM212B (11763350_a_at) / Fold change /veh FAM212B (11763350_a_at) / RFU PLEKHG5 (11743358_a_at) / Fold change /veh PLEKHG5 (11743358_a_at) / RFU ZSCAN30 (11745921_a_at) / Fold change /veh ZSCAN30 (11745921_a_at) / RFU CMKLR1 (11741424_a_at) / Fold change /veh CMKLR1 (11741424_a_at) / RFU LOC101060620 /// MAPK8IP1 (11723275_at) / Fold change /veh LOC101060620 /// MAPK8IP1 (11723275_at) / RFU SPTSSB (11747773_x_at) / Fold change /veh SPTSSB (11747773_x_at) / RFU PRSS12 (11739890_at) / Fold change /veh PRSS12 (11739890_at) / RFU BIN1 (11741810_x_at) / Fold change /veh BIN1 (11741810_x_at) / RFU WNT11 (11732464_a_at) / Fold change /veh WNT11 (11732464_a_at) / RFU C10orf10 (11716521_a_at) / Fold change /veh C10orf10 (11716521_a_at) / RFU C5orf56 (11738089_at) / Fold change /veh C5orf56 (11738089_at) / RFU CYB561 (11721691_x_at) / Fold change /veh CYB561 (11721691_x_at) / RFU ANKRD19P (11752326_a_at) / Fold change /veh ANKRD19P (11752326_a_at) / RFU OR2T12 /// OR2T33 /// OR2T8 (11738714_s_at) / Fold change /veh OR2T12 /// OR2T33 /// OR2T8 (11738714_s_at) / RFU VCAN (11748164_a_at) / Fold change /veh VCAN (11748164_a_at) / RFU JSRP1 (11732532_at) / Fold change /veh JSRP1 (11732532_at) / RFU KRTAP10-11 (11738290_x_at) / Fold change /veh KRTAP10-11 (11738290_x_at) / RFU MYO3A (11730013_a_at) / Fold change /veh MYO3A (11730013_a_at) / RFU EBF3 (11725865_a_at) / Fold change /veh EBF3 (11725865_a_at) / RFU CAMK2N1 (11719241_x_at) / Fold change /veh CAMK2N1 (11719241_x_at) / RFU C5orf56 (11738088_a_at) / Fold change /veh C5orf56 (11738088_a_at) / RFU OLFML3 (11715873_a_at) / Fold change /veh OLFML3 (11715873_a_at) / RFU LOC100653217 /// NTM (11731650_a_at) / Fold change /veh LOC100653217 /// NTM (11731650_a_at) / RFU MAPK11 (11762145_a_at) / Fold change /veh MAPK11 (11762145_a_at) / RFU FIZ1 (11724087_x_at) / Fold change /veh FIZ1 (11724087_x_at) / RFU OASL (11726364_x_at) / Fold change /veh OASL (11726364_x_at) / RFU SOX15 (11748057_x_at) / Fold change /veh SOX15 (11748057_x_at) / RFU CD79A (11719716_a_at) / Fold change /veh CD79A (11719716_a_at) / RFU HIST1H1D (11736915_at) / Fold change /veh HIST1H1D (11736915_at) / RFU CASKIN2 (11723855_a_at) / Fold change /veh CASKIN2 (11723855_a_at) / RFU LOC730098 (11760151_x_at) / Fold change /veh LOC730098 (11760151_x_at) / RFU OR4N2 (11742367_at) / Fold change /veh OR4N2 (11742367_at) / RFU PRRT2 (11749266_a_at) / Fold change /veh PRRT2 (11749266_a_at) / RFU SNX32 (11753110_a_at) / Fold change /veh SNX32 (11753110_a_at) / RFU CDHR5 (11726645_a_at) / Fold change /veh CDHR5 (11726645_a_at) / RFU RCAN1 (11760418_a_at) / Fold change /veh RCAN1 (11760418_a_at) / RFU FAM167A (11723789_a_at) / Fold change /veh FAM167A (11723789_a_at) / RFU FAM26E (11764081_at) / Fold change /veh FAM26E (11764081_at) / RFU ISYNA1 (11749810_s_at) / Fold change /veh ISYNA1 (11749810_s_at) / RFU ACY1 (11761880_at) / Fold change /veh ACY1 (11761880_at) / RFU 11764098_at / Fold change /veh 11764098_at / RFU SAMD14 (11745864_x_at) / Fold change /veh SAMD14 (11745864_x_at) / RFU NPB (11741838_a_at) / Fold change /veh NPB (11741838_a_at) / RFU TMPRSS6 (11731388_a_at) / Fold change /veh TMPRSS6 (11731388_a_at) / RFU KRTAP10-2 (11738614_at) / Fold change /veh KRTAP10-2 (11738614_at) / RFU ARHGAP8 /// PRR5-ARHGAP8 (11727945_x_at) / Fold change /veh ARHGAP8 /// PRR5-ARHGAP8 (11727945_x_at) / RFU KRTAP5-7 /// NADSYN1 (11734609_at) / Fold change /veh KRTAP5-7 /// NADSYN1 (11734609_at) / RFU RASL12 (11751679_a_at) / Fold change /veh RASL12 (11751679_a_at) / RFU CDKN2B (11736163_a_at) / Fold change /veh CDKN2B (11736163_a_at) / RFU PRF1 (11729649_at) / Fold change /veh PRF1 (11729649_at) / RFU, ZNF638 /// ZNF638-IT1 / Fold change vs veh, ZNF638 /// ZNF638-IT1 / RFU, PANK3 / Fold change vs veh, PANK3 / RFU, SH3YL1 / Fold change vs veh, SH3YL1 / RFU, ZEB2 / Fold change vs veh, ZEB2 / RFU, NRIP1 / Fold change vs veh, NRIP1 / RFU, PTTG1IP / Fold change vs veh, PTTG1IP / RFU, CAPN2 / Fold change vs veh, CAPN2 / RFU, MED14 / Fold change vs veh, MED14 / RFU, SNORA58 / Fold change vs veh, SNORA58 / RFU, C1orf63 / Fold change vs veh, C1orf63 / RFU, LRRFIP1 / Fold change vs veh, LRRFIP1 / RFU, NDUFAF7 / Fold change vs veh, NDUFAF7 / RFU, SLC12A2 / Fold change vs veh, SLC12A2 / RFU, IBTK / Fold change vs veh, IBTK / RFU, ESF1 / Fold change vs veh, ESF1 / Fold change vs veh, TMEM50B / RFU, TAOK1 / Fold change vs veh, TAOK1 / RFU, ACBD3 / Fold change vs veh, ACBD3 / RFU, TMA16 / Fold change vs veh, TMA16 / RFU, RWDD3 / Fold change vs veh, RWDD3 / RFU, BCAT1 / Fold change vs veh, BCAT1 / RFU, EDEM3 / Fold change vs veh, EDEM3 / RFU, TMEM33 / Fold change vs veh, TMEM33 / RFU, WDR75 / Fold change vs veh, WDR75 / RFU, AHCTF1 / Fold change vs veh, AHCTF1 / RFU, TFRC / Fold change vs veh, TFRC / RFU, ZDHHC17 / Fold change vs veh, ZDHHC17 / RFU, NOM1 / Fold change vs veh, NOM1 / RFU, ARL8B / Fold change vs veh, ARL8B / RFU, ZBTB11 / Fold change vs veh, ZBTB11 / RFU, TAMM41 / Fold change vs veh, TAMM41 / RFU, KIAA1704 /// LOC100996395 / Fold change vs veh, KIAA1704 /// LOC100996395 / RFU, ING1 / Fold change vs veh, ING1 / RFU, TRMT61B / Fold change vs veh, TRMT61B / RFU, FUBP3 / Fold change vs veh, FUBP3 / RFU, TP53 / Fold change vs veh, TP53 / RFU, TNKS2 / Fold change vs veh, TNKS2 / RFU, ZFP14 / Fold change vs veh, ZFP14 / RFU, ACTR2 / Fold change vs veh, ACTR2 / RFU, PPP3R1 / Fold change vs veh, PPP3R1 / RFU, PIK3R1 / Fold change vs veh, PIK3R1 / RFU, HNRNPA1 / Fold change vs veh, HNRNPA1 / RFU, RNF170 / Fold change vs veh, RNF170 / RFU, ZNF28 / Fold change vs veh, ZNF28 / RFU, RNGTT / Fold change vs veh, RNGTT / RFU, OGT / Fold change vs veh, OGT / RFU, BRD1 / Fold change vs veh, BRD1 / RFU, MARS / Fold change vs veh, MARS / RFU, ZNF655 / Fold change vs veh, ZNF655 / RFU, FAHD1 / Fold change vs veh, FAHD1 / RFU, BDP1 / Fold change vs veh, BDP1 / RFU, LRRCC1 / Fold change vs veh, LRRCC1 / RFU, ARID1A / Fold change vs veh, ARID1A / RFU, ZNF146 / Fold change vs veh, ZNF146 / RFU, ZNF330 / Fold change vs veh, ZNF330 / RFU, GPN3 / Fold change vs veh, GPN3 / RFU, C9orf123 / Fold change vs veh, C9orf123 / RFU, N4BP2L2 / Fold change vs veh, N4BP2L2 / RFU, ARFIP1 / Fold change vs veh, ARFIP1 / RFU, FAM179B / Fold change vs veh, FAM179B / RFU, BCL10 / Fold change vs veh, BCL10 / RFU, UHRF1BP1L / Fold change vs veh, UHRF1BP1L / RFU, BET1 / Fold change vs veh, BET1 / RFU, CNOT2 / Fold change vs veh, CNOT2 / RFU, ZNF268 / Fold change vs veh, ZNF268 / Fold change vs veh, ZNF507 / RFU, DGCR2 / Fold change vs veh, DGCR2 / RFU, WDSUB1 / Fold change vs veh, WDSUB1 / Fold change vs veh, HSP90B1 /// MIR3652 / RFU, ADSS / Fold change vs veh, ADSS / RFU, GK / Fold change vs veh, GK / RFU, ZNF148 / Fold change vs veh, ZNF148 / RFU, TAF9 / Fold change vs veh, TAF9 / RFU, SLC1A5 / Fold change vs veh, SLC1A5 / RFU, SLMO2 / Fold change vs veh, SLMO2 / RFU, ABCC4 / Fold change vs veh, ABCC4 / RFU, LOC101060439 /// RAP1B / Fold change vs veh, LOC101060439 /// RAP1B / RFU, RFX7 / Fold change vs veh, RFX7 / RFU, GTPBP10 / Fold change vs veh, GTPBP10 / RFU, CNEP1R1 / Fold change vs veh, CNEP1R1 / RFU, BIVM-ERCC5 /// ERCC5 / Fold change vs veh, BIVM-ERCC5 /// ERCC5 / RFU, ILF3 / Fold change vs veh, ILF3 / RFU 11762660_at / Fold change /veh 11762660_at / RFU VCAN (11757783_s_at) / Fold change /veh VCAN (11757783_s_at) / RFU DDX43 (11728927_at) / Fold change /veh DDX43 (11728927_at) / RFU KRT8 (11758188_x_at) / Fold change /veh KRT8 (11758188_x_at) / RFU NKD1 (11759106_at) / Fold change /veh NKD1 (11759106_at) / RFU SRD5A1 (11742802_a_at) / Fold change /veh SRD5A1 (11742802_a_at) / RFU TPSAB1 /// TPSB2 (11721975_s_at) / Fold change /veh TPSAB1 /// TPSB2 (11721975_s_at) / RFU GSTM3 (11746129_a_at) / Fold change /veh GSTM3 (11746129_a_at) / RFU IL23R (11737362_x_at) / Fold change /veh IL23R (11737362_x_at) / RFU TMEM51 (11727254_a_at) / Fold change /veh TMEM51 (11727254_a_at) / RFU PIWIL2 (11732686_x_at) / Fold change /veh PIWIL2 (11732686_x_at) / RFU ORM1 (11744905_x_at) / Fold change /veh ORM1 (11744905_x_at) / RFU CCDC152 (11743942_at) / Fold change /veh CCDC152 (11743942_at) / RFU ECM1 (11717891_a_at) / Fold change /veh ECM1 (11717891_a_at) / RFU IL23R (11748794_a_at) / Fold change /veh IL23R (11748794_a_at) / RFU TNFAIP8L3 (11732012_x_at) / Fold change /veh TNFAIP8L3 (11732012_x_at) / RFU MBOAT4 (11741988_at) / Fold change /veh MBOAT4 (11741988_at) / RFU 11764193_at / Fold change /veh 11764193_at / RFU TMEM53 (11763286_at) / Fold change /veh TMEM53 (11763286_at) / RFU MAGEB2 (11727129_at) / Fold change /veh MAGEB2 (11727129_at) / RFU TMEM200A (11744735_a_at) / Fold change /veh TMEM200A (11744735_a_at) / RFU CCDC152 (11751479_a_at) / Fold change /veh CCDC152 (11751479_a_at) / RFU FAM211A (11726209_a_at) / Fold change /veh FAM211A (11726209_a_at) / RFU RGS16 (11746705_a_at) / Fold change /veh RGS16 (11746705_a_at) / RFU VCAN (11755009_s_at) / Fold change /veh VCAN (11755009_s_at) / RFU RHOB (11743442_s_at) / Fold change /veh RHOB (11743442_s_at) / RFU RGS16 (11720943_a_at) / Fold change /veh RGS16 (11720943_a_at) / RFU RGS16 (11720944_at) / Fold change /veh RGS16 (11720944_at) / RFU, VPS4B / Fold change vs veh, VPS4B / RFU, CREB1 / Fold change vs veh, CREB1 / RFU, DNAJC13 / Fold change vs veh, DNAJC13 / RFU, GNAQ / Fold change vs veh, GNAQ / RFU, CDK5R1 / Fold change vs veh, CDK5R1 / RFU, ZRANB3 / Fold change vs veh, ZRANB3 / RFU, CUL4A / Fold change vs veh, CUL4A / RFU, CCNY / Fold change vs veh, CCNY / RFU, UFL1 / Fold change vs veh, UFL1 / RFU, COG3 / Fold change vs veh, COG3 / RFU, DIAPH2 / Fold change vs veh, DIAPH2 / RFU, SKA2 / Fold change vs veh, SKA2 / RFU, AFF3 / Fold change vs veh, AFF3 / RFU, LMF1 / Fold change vs veh, LMF1 / RFU, IPO11 / Fold change vs veh, IPO11 / RFU, DFFB / Fold change vs veh, DFFB / RFU, FOXP1 / Fold change vs veh, FOXP1 / RFU, CARD8 / Fold change vs veh, CARD8 / RFU, STRN3 / Fold change vs veh, STRN3 / RFU, ADK / Fold change vs veh, ADK / RFU, RASSF2 / Fold change vs veh, RASSF2 / RFU, WIPF1 / Fold change vs veh, WIPF1 / RFU, LARP1B / Fold change vs veh, LARP1B / RFU, RASA1 / Fold change vs veh, RASA1 / RFU, RB1 / Fold change vs veh, RB1 / RFU, PPFIA1 / Fold change vs veh, PPFIA1 / RFU, MAT2A / Fold change vs veh, MAT2A / RFU, CCT5 / Fold change vs veh, CCT5 / RFU, WDR92 / Fold change vs veh, WDR92 / RFU, CUX1 / Fold change vs veh, CUX1 / RFU, TTC7A / Fold change vs veh, TTC7A / RFU, TMEM135 / Fold change vs veh, TMEM135 / RFU, DEPTOR / Fold change vs veh, DEPTOR / RFU, CPM / Fold change vs veh, CPM / RFU, DNAJB6 / Fold change vs veh, DNAJB6 / RFU, CACNA2D3 / Fold change vs veh, CACNA2D3 / RFU, DTX4 / Fold change vs veh, DTX4 / RFU, TFCP2 / Fold change vs veh, TFCP2 / RFU, GMCL1 /// GMCL1P1 / Fold change vs veh, GMCL1 /// GMCL1P1 / RFU, AEBP2 / Fold change vs veh, AEBP2 / RFU, SNHG1 /// SNORD22 /// SNORD25 /// SNORD26 /// SNORD27 /// SNORD28 /// SNORD29 /// SNORD31 / Fold change vs veh, SNHG1 /// SNORD22 /// SNORD25 /// SNORD26 /// SNORD27 /// SNORD28 /// SNORD29 /// SNORD31 / Fold change (Aza/veh), C12orf56 (ProbeSet 11735607_a_at) / Fold change (ACY-1035/veh), C12orf56 (ProbeSet 11735607_a_at) / Fold change (Aza/veh), FGFR1OP (ProbeSet 11751329_s_at) / Fold change (ACY-1035/veh), FGFR1OP (ProbeSet 11751329_s_at) / Fold change (Aza/veh), VPS36 (ProbeSet 11739960_a_at) / Fold change (ACY-1035/veh), VPS36 (ProbeSet 11739960_a_at) / RFU SYPL1 (11715823_x_at) / Fold change /veh SYPL1 (11715823_x_at) / RFU IGFBP7 (11715501_s_at) / Fold change /veh IGFBP7 (11715501_s_at) / RFU REEP3 (11722064_at) / Fold change /veh REEP3 (11722064_at) / RFU IGLL1 (11728026_x_at) / Fold change /veh IGLL1 (11728026_x_at): dose or concentration left out as unconfirmed
Conditions: ProbeSet 11723475_a_at; LIST B

Nc1ccc(-c2cccs2)cc1NC(=O)c1ccc2c(c1)cc(C1CC1)n2CCN1CCOCC1 [ACY-1035]
RFU, TRMT61B: 136.33 RFU
